# System: adult patients with OSA and ES
# Assay: SF-36v2 health-related quality of life, 12-week parallel study in OSA
# Type: in vivo, human
# Settings: week 12
# Experimental: This was a 12-week, double-blind, placebo-controlled, parallel-design study. Patients were randomized (1:1:2:2:2) to APC 37.5 mg, 75 mg, 150 mg, or 300 mg, or placebo for 12 weeks, and were stratified by adherence or nonadherence with primary OSA therapy.
# The SF-36 v2 consists of 2 summary scales (Physical Component Summary and Mental Component Summary) and 8 specific health status domains (Physical Function, Role Physical, Bodily Pain, General Health, Vitality, Social Functioning, Role Emotional, Mental Health) (Ware Jr et al., User's Manual for the SF-36v2™ Health Survey (2nd ed). QualityMetric Incorporated (Lincoln, RI); 2007). The EQ-5D-5L consists of 5 questions/dimensions (Mobility, Self-care, Usual Activities, Pain/Discomfort, and Anxiety/Depression) that have 5 response levels each (no problems, slight problems, moderate problems, severe problems, and extreme problems/unable to do) that are used to derive an overall EQ-5D-5L index score (0=death, 1=perfect health), and a health status visual analog scale (VAS) that is anchored at 0 with “the worst health you can imagine” and at 100 with “the best health you can imagine.” (The EuroQol Group. EQ-5D-5L User Guide. Version 2.1. April 2015. www.eurogol.org/fileadmin/user_upload/Documenten/PDF/Folders_Flyers/EQ-5D-5L_UserGuide_2015.pdf)
# Efficacy analyses were based on the modified intent-to-treat (mITT) population; there was no multiplicity adjustment for the SF-36 v2 or EQ-5D-5L. SF-36 v2 scores were scaled from 0 to 100 (higher scores on all scales represent better health), transformed to norm-based scores using US general-population data from SF-36 Manuals (Ware Jr et al., User's Manual for the SF-36v2™ Health Survey (2nd ed.). QualityMetric Incorporated (Lincoln, RI); 2007), and were analyzed using a mixed-effect model with repeated measures (MMRM); and baseline value of the efficacy endpoint was used to determine differences in changes from baseline. EQ-5D-5L VAS and index-score data were analyzed using an MMRM model. Safety and tolerability were assessed based on treatment-emergent adverse events (TEAEs), vital signs, electrocardiogram test, physical exams, and laboratory tests.
smiles,measurement,setting,value
"NC(=O)OC[C@H](N)Cc1ccccc1 [JZP-110, (R)-2-amino-3-phenylpropyl carbamate]","SF-36v2 Role Physical, General Health, Social Functioning, Role Emotional vs placebo",150 mg,significantly greater changes from baseline relative to placebo
same,SF-36v2 Role Physical and Vitality domains and Physical Component Summary Scale vs placebo,300 mg,significantly greater improvements relative to placebo
same,SF-36v2 Mental Component Summary scores vs placebo,"37.5, 75, 150 mg similar",only APC 150 mg reaching statistical significance
same,"SF-36v2 Vitality domain, response vs MCID","75, 150, and 300 mg",exceeded the MCID
same,"SF-36v2 Physical Component Summary Scale, increase vs placebo",150 and 300 mg,statistically significant
same,SF-36v2 Vitality domain vs placebo,150 and 300 mg,statistically significant improvements relative to placebo
same,SF-36v2 Physical and Mental Component Summary changes vs MCID,,did not exceed the minimal clinically important difference
